From ChEMBL document CHEMBL1158279, “Isolation and structure of leukotriene-A4 hydrolase inhibitor: 8(S)-amino-2(R)-methyl-7-oxononanoic acid produced by Streptomyces diastaticus” (J Nat Prod, 1996) come the findings set out here.

Assay [1] concerns the target T1, Leukotriene A-4 hydrolase (Homo sapiens, UniProt P09960).
T1 sequence (P09960 whole entry): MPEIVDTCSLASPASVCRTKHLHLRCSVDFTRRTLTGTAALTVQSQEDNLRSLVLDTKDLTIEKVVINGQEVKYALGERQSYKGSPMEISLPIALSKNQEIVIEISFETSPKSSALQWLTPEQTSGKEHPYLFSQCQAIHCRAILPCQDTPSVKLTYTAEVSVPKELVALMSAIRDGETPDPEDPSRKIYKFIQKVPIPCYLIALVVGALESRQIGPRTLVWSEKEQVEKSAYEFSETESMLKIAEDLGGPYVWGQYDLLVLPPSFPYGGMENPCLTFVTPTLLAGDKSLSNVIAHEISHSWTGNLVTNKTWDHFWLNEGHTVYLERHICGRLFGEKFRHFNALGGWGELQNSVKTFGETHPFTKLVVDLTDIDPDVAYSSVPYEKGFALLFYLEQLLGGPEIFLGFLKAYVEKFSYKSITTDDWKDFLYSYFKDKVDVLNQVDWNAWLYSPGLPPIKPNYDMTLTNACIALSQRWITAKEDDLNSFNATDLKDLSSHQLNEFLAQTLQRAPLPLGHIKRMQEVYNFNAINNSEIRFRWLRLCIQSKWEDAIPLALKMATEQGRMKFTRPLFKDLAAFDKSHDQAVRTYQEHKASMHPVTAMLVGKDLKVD
Description: Inhibition of human recombinant LTA4 aminopeptidase activity spectrophotometric analysis.

The subject of assay [2] is Blood. Kind of assay: Inhibition of TxB2 production in human whole blood after 15 mins by ELISA. It counts as functional, tissue-based. The conditions noted are these: 0.25 h.
Assay [3] addresses T2, Angiotensin-converting enzyme (Oryctolagus cuniculus, UniProt P12822).
T2 sequence (P12822 whole entry): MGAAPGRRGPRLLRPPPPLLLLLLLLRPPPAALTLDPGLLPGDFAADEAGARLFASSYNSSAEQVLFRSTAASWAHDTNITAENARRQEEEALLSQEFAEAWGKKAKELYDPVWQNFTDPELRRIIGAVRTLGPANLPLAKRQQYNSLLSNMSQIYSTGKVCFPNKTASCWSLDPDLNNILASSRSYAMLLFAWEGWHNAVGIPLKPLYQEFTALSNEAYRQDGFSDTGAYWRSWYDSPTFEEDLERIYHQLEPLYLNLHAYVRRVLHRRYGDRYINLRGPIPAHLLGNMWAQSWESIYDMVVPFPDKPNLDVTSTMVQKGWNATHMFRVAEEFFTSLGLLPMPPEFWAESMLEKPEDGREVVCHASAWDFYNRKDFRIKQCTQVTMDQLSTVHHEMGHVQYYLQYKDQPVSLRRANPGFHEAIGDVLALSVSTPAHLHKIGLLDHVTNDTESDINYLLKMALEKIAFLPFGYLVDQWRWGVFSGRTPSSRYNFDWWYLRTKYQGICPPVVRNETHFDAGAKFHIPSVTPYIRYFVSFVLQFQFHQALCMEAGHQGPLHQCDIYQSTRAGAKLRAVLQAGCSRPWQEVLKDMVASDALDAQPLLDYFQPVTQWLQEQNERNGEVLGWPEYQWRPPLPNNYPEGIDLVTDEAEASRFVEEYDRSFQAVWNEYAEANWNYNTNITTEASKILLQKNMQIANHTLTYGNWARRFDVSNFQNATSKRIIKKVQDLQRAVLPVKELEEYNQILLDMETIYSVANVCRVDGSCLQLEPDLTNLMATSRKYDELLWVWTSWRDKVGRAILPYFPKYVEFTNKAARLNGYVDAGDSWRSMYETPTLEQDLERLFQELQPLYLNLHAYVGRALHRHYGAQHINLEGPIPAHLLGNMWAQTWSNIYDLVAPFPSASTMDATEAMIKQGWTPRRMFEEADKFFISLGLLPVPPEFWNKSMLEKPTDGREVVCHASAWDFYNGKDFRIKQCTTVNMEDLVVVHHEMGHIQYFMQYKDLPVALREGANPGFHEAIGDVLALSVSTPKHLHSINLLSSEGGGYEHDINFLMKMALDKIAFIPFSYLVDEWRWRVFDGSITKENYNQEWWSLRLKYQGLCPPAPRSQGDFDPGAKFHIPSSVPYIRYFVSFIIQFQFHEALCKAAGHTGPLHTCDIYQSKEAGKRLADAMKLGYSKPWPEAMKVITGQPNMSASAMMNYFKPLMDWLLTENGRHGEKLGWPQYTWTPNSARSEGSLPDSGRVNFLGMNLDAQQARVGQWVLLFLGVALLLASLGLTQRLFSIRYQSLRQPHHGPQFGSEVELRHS
Description: Inhibition of rabbit lung ACE.

The target in assay [4] is T1, Leukotriene A-4 hydrolase. Description: Inhibition of human recombinant LTA4 hydrolase assessed as LTB4 production after 30 mins by ELISA. (ELISA stands for enzyme-linked immunosorbent assay.)
Assay [5] relates to Blood. Description: Inhibition of LTB4 production in human whole blood after 15 mins by ELISA. In kind it is functional, tissue-based. The conditions noted are these: 0.25 h.

For the molecule `C[C@H](N)C(=O)CCCC[C@@H](C)C(=O)O`, the IC50 (as a rule, the concentration that gives 50% inhibition) is 0.3 µM in assay [1]; above 30 µM with Blood [2]; above 100 µM in assay [3]; 0.57 µM in assay [4]; 7 µM with Blood [5].
